These results are taken from EP0315782A2, “Method for the production of proteins” (priority 1987, dated 1989).

Assay type in all cases: cell-based, chinesische Hamster
For test [1], the system named is CHO-Zellen. Put plainly: t-PA production in transformed CHO cells, medium with 7.5% FKS, supernatant, direct chromogenic assay (DCA). The settings on record: for Stimulierung der t-PA-Produktion: after 24 h. An excerpt: (§1) Der Vektor für die t-PA-Produktion wurde in einem Subklon, CHO-K1-DUX B11, integriert (Urlaub et al., Proceedings of the National Academy of Science, USA, 77: 4216-4220, 1980). Diese Zell-Linie, eine Dihydrofolat Reduktase negative Mutante (DHFR-), ist für eine DHFR-abhängige Selektion der transfizierten Zellklone geeignet. Der Vektor für die humane c-DNA kann ein bekannter Plasmid-Vektor pBR-322 oder deren Abkömmling von Escherichia coli sein. Die Promotorregion für das in Frage kommende Gen und für das DHFR-Gen stammt aus SV 40 und die Terminationsregion für beide Gene von einem Hepatitis B-Oberflächenantigen. In den Beispielen wurden CHO-K1-DUX B11-Zellen, die durch die Plasmide pETPER oder pEPEFR transformiert sind, verwendet (siehe EP-A 0117059).
(§2) Die Zellkulturen werden bei 37°C in einem Hereaus-Brutschrank inkubiert und mit einem Kohlendioxid-Luftgemisch von 7,5% CO₂ in einer relativen Luftfeuchtigkeit von 100% belüftet. Je nach Verfahrensansatz werden unterschiedliche Kulturgefäße benutzt: Spinnergefäße für 100-1000 ml Medium, Roux-Schalen (Nunc) 175 cm² (70-100 ml Medium), 75 cm² (30-50 ml Medium), 25 cm² (7-10 ml Medium) und Mehrfachkulturschalen von Costar mit 2 cm² für 1 ml Kulturen. Für die Stammhaltung werden die Zellen in einer Dichte von 0,2-0,3 x 10⁶ Zellen/ml eingesetzt und alle 2-3 Tage subkloniert.
(§3) Die Protein-Produktion stimulierenden Substanzen können zu den verschiedenen Zeitpunkten jeweils in einer 1:100 Verdünnung zugegeben werden, d.h. sie wurden zuerst in Medium gelöst oder, wenn sie schwerlöslich sind, erst in Äthylalkohol gelöst und danach in Medium zugesetzt und dann das diese Substanz enthaltende Medium dem zellenthaltenden Medium im Verhältnis 1:100 v/v zugegeben.
(§4) In den folgenden Beispielen wurden, um die Stimulierung der t-PA-Synthese hervorzurufen, Zellen einer exponentiell wachsenden Kultur entnommen und in Plastikröhrchen (Falcon) 10 Min. bei 1000 x g in einer Beckmann T 3-6 Zentrifuge abzentrifugiert. Nach Dekantieren des Überstandes wurde das Zellpellet mit frischem Medium resuspendiert.
Für die Produktion von t-PA in serumhaltigem Medium wurde als frisches Medium F12/DMEM + 7,5% FKS + Gentamycin verwendet. Die resultierende Suspension kann in 2 cm² 24 Wells-Platten bei einer Zelldichte von 0,2-0,3 x 10⁶ Zellen/ml angesetzt werden.
(§5) Aliquots von Zellüberständen und Zellextrakten wurden zu verschiedenen Zeitpunkten abgenommen bzw. hergestellt. Die Messung der Proben erfolgte entweder sofort oder nach Aufbewahrung bei -20°C mit folgenden Methoden:
Von dem synthetischen Peptidsubstrat S-2288 (D-H-Ile-Pro-Arg-p-Nitroanilin) der Firma Kabi Diagnostica wird durch das t-PA p-Nitroanilin als Reaktionsprodukt gebildet. Die Aktivität von t-PA ist zur Bildung von p-Nitroanilin proportional, die bei […], 37°C, gemessen wird.
Die spektrophotometrische Bestimmung der Enzymkinetik wurde mit einem ACP-5010-Analysengerät der Firma Eppendorf automatisch durchgeführt.
Die Aktivität des Enzyms wurde anhand dieses vorgegebenen Standards berechnet. Eine t-PA-Standardreihe von 1-15 µg/ml wurde mit einem Laborstandard hergestellt, der zu 72% aus 1-kettigem Material besteht.
Die Substratlösung (100 mM Tris/106 mM NaCl) wurde in einer Konzentration von 50 mM eingesetzt.

In test [2] the test system is CHO-Zellen. Put plainly: t-PA production in transformed CHO cells, medium and determination method not stated. To be noted: 10 mM; for activation at 10000 µM: CHO.
Description: as §1, §2, §3, §4
Aliquots von Zellüberständen und Zellextrakten wurden zu verschiedenen Zeitpunkten abgenommen bzw. hergestellt. Die Messung der Proben erfolgte entweder sofort oder nach Aufbewahrung bei -20°C mit folgenden Methoden: […]

Test [3] deals with CHO-Zellen. Put plainly: t-PA production in transformed CHO cells, serum-free medium (DCA or determination method not given).
Description: Diese Zell-Linie, eine Dihydrofolat Reduktase negative Mutante (DHFR-), ist für eine DHFR-abhängige Selektion der transfizierten Zellklone geeignet. […] Die Promotorregion für das in Frage kommende Gen und für das DHFR-Gen stammt aus SV 40 und die Terminationsregion für beide Gene von einem Hepatitis B-Oberflächenantigen.
Im folgenden Beispiel wird ein nachseziertes DMEM/Ham's F 12 Medium (1:1) (Gibco) als serumfreies Medium verwendet. Als Zusatz wird fötales Kälberserum (FKS) in einer Konzentration von 7,5% oder 1-2% verwendet.
as §2, §3, §4
Für die Produktion von t-PA in serumfreiem Medium wurden die Zellen zuvor 3-4 Tage in einem Medium von 1-2% FKS adaptiert, wieder abzentrifugiert und das Zellpellet in serumfreiem Medium resuspendiert und anschließend in 2 cm² 24 Wells-Platten in einer Zelldichte von 0,4-0,5 x 10⁶ Zellen/ml überführt.
as §5
Die Aktivität des Enzyms wurde anhand dieses vorgegebenen Standards berechnet.

Where [4] appears, read: Table 3, mean ± SE, n = 3-24, production runs of 3 to 4 days, acids added day 0 to 3, 1 ml supernatant vs control (0%), 7,5% FKS.
Setting [5] is: Table 3, single sample, 1 ml supernatant vs control (0%), 7,5% FKS, its concentration, addition and sampling day in brackets in Tables 3/3A.
Setting [6] is: Table 10, 7,5% FKS, bracketed value = concentration of the single sample.
Setting [7] is: Table 10, mean ± SE, runs of 4 days, added day 1, sampled days 2-4, 7,5% FKS, 1 ml supernatant vs control (0%).
Where [8] appears, read: Table 10, single sample (added day 1, sampled day 4), 7,5% FKS, 1 ml supernatant vs control (0%).
The mark [9] stands for this setting: Table 3, stimulation of t-PA synthesis, medium with 7,5% FKS, bracketed value = concentration of the single (maximum) sample.
The mark [10] stands for this setting: Table 4, Applikationstag 0, after 48 h growth, 7,5% FKS, 1 mM or 5 mM, 1 ml supernatant vs control (0%), mean ± SE.
Where [11] appears, read: Table 4, Applikationstag 1, after 48 h growth, 7,5% FKS, 1 mM or 5 mM, 1 ml supernatant vs control (0%), mean ± SE.
Where [12] appears, read: Table 7, mean ± SE, n = 4-9, runs of 4 days, acids added day 0, 7,5% FKS, 1 ml supernatant vs control (0%).
[13] abbreviates: Table 7, single sample (added day 0, sampled day 2), 7,5% FKS, 1 ml supernatant vs control (0%).
Setting [14] is: Table 8, 7,5% FKS, bracketed value = concentration of the single sample.
[15] abbreviates: Table 8, mean ± SE, n = 6-19, runs of 3 days, added day 0 to 2, 7,5% FKS, 1 ml supernatant vs control (0%).
Where [16] appears, read: Table 8, single sample, 7,5% FKS, 1 ml supernatant vs control (0%).

Where two headings read alike, the source gives them in different places.

Turning to `O=CO` [Ameisensäure, reference compound], the “% Steigerung der t-PA-Synthese Durchschnitt” value with CHO-Zellen [1] (setting [4]) is 6,5 ± 0,9%. Moreover, the “% Steigerung der t-PA-Synthese Maximum” value in the test on CHO-Zellen [1] (setting [5]) is 7,4%. Further, the “optimaler Dosisbereich” value in the test on CHO-Zellen [1] (Table 3, stimulation of t-PA synthesis, medium with 7,5% FKS) is listed as 100 µM.
In the case of `O=C1O[C@H]([C@@H](O)CO)C(O)=C1O` [Ascorbinsäure], the “Wirkung auf die t-PA-Produktion hält an” value in the test on CHO-Zellen [2] (duration of effect) stood at 72 h. Further, the activation at 10000 µM in the test with CHO-Zellen [2] (application day 0, after 24 h (Abb. 14), read-out: Steigerung der t-PA-Synthese) turned out to be 15.2%.
For the compound `CCCC(=O)OCC[N+](C)(C)C.[Br-]` [BCB, Butyrylcholinbromid], the “optimaler Dosisbereich” value with CHO-Zellen [1] (setting [6]) is listed as 5-10 mM (2.5 mM). Moreover, in the test on CHO-Zellen [1] (setting [7]), the “% Steigerung der t-PA-Synthese Durchschnitt” value is given as 29,1 ± 4,4%. Besides, the “% Steigerung der t-PA-Synthese Maximum” value with CHO-Zellen [1] (setting [8]) was 49,6%.
In the same order, the values of `CCCC(=O)OCC[N+](C)(C)C.[Cl-]` [BCC, Butyrylcholinchlorid] are 5-10 mM ( 10 mM), 38,8 ± 4,4% and 63,9%.
As for `CCCC(=O)O` [Buttersäure], the “t-PA-Synthese, bezogen auf 1 x 10⁶ Zellen” value with CHO-Zellen [3] (serum-free medium (Abb. 13)) is > 50 µg/ 1 x 10⁶ Zellen. The “% Steigerung der t-PA-Synthese Durchschnitt” value in the test with CHO-Zellen [1] (setting [4]) is 41,9 ± 3,8%. Moreover, in the test on CHO-Zellen [1] (setting [5]), the “% Steigerung der t-PA-Synthese Maximum” value is listed as 68,3%. The “optimaler Dosisbereich” value with CHO-Zellen [1] (setting [9]) is on record as 1-5 mM ( 1 mM). In addition, the results for the “Steigerung der t-PA-Produktion” value in the test on CHO-Zellen [1] (setting [10]) and in the test with CHO-Zellen [1] (setting [11]) were 33,0 ± 5,4% and 40,2 ± 12,2%, respectively. In addition, the “Stimulierung der t-PA-Produktion” value in the test on CHO-Zellen [1] (medium with 7,5% FKS (Abb. 7)) is on record as 18,1 ± 5,7%.
`CC(=O)C=C(C)CC(C)(C)O` [DHO, 6-Hydroxy-4,6-Dimethyl-3-hepten-2-on]: in the test on CHO-Zellen [3] (after 144 h), the “t-PA Produktion nach der Behandlung” value is recorded as “erhöht”.
For the compound `CCCCCc1oc(CCCCCCCCC(=O)O)c(C)c1C` [Furanfettsäure], the “% Steigerung der t-Pa-Synthese Durchschnitt” value in the test with CHO-Zellen [1] (setting [12]) was 19,0 ± 3,2%. For the same compound, the “% Steigerung der t-Pa-Synthese Maximum” value in the test with CHO-Zellen [1] (setting [13]) was 32,1%.
For `N[C@@H](CCC(=O)N[C@@H](CS)C(=O)NCC(=O)O)C(=O)O` [Glutathion], in the test with CHO-Zellen [1] (setting [14]), the “optimaler Dosisbereich” value is on record as 1-10 µM (10µM). In the test with CHO-Zellen [1] (setting [15]), the “% Steigerung der t-Pa-Synthese Durchschnitt” value is listed as 16,0 ± 2,0%. For the same compound, the “% Steigerung der t-Pa-Synthese Maximum” value in the test on CHO-Zellen [1] (setting [16]) is recorded as 30,6%. Also, in the test on CHO-Zellen [1] (text b134), the “effektiver Konzentrationsbereich” value fell in the range of 1 to 10 µM.
As to `CC(C)C(=O)O` [Isobuttersäure], the “% Steigerung der t-PA-Synthese Durchschnitt” value with CHO-Zellen [1] (setting [4]) is 16.6 ± 2,8%. In addition, the “% Steigerung der t-PA-Synthese Maximum” value in the test with CHO-Zellen [1] (setting [5]) was 32,9%. In addition, the “optimaler Dosisbereich” value in the test with CHO-Zellen [1] (setting [9]) was 0,6-10 mM (10 mM). The “Steigerung der t-PA-Produktion” value is 20,1 ± 10,7% with CHO-Zellen [1] (setting [10]) and 25,3 ± 5,1% in the test with CHO-Zellen [1] (setting [11]). Also, the Produktionssteigerung erst nach with CHO-Zellen [1] (onset of the increase, medium with 7,5% FKS (Abb. 7)) came out at 48 h.
Regarding `CC(C)CC(=O)O` [Isovaleriansäure], the “% Steigerung der t-PA-Synthese Durchschnitt” value in the test on CHO-Zellen [1] (setting [4]) was 18,7 ± 2,4%. In the test on CHO-Zellen [1] (setting [5]), the “% Steigerung der t-PA-Synthese Maximum” value is 39,3%. Besides, the “optimaler Dosisbereich” value in the test on CHO-Zellen [1] (setting [9]) is recorded as 1-20 mM ( 5 mM). Besides, the “Steigerung der t-PA-Produktion” value in the test with CHO-Zellen [1] (setting [10]) is 17,2 ± 1,0%; with CHO-Zellen [1] (setting [11]), 19,4 ± 1,5%; with CHO-Zellen [1] (day 4, medium with 7,5% FKS (Abb. 7)), 8,5%. Also, the “Stimulierung der t-PA-Produktion” value in the test with CHO-Zellen [1] (medium with 7,5% FKS (Abb. 7)) is listed as 24,8 ± 0,5%.
For the compound `N[C@@H](CS)C(=O)O` [L-Cystein], the “optimaler Dosisbereich” value in the test on CHO-Zellen [1] (setting [14]) is on record as 1-10 mM ( 1mM). In addition, in the test on CHO-Zellen [1] (setting [15]), the “% Steigerung der t-Pa-Synthese Durchschnitt” value is listed as 20,9 ± 3,4%. Moreover, the “% Steigerung der t-Pa-Synthese Maximum” value with CHO-Zellen [1] (setting [16]) is on record as 41,4%. The “Maximalwert des Steigerungseffektes erreicht nach” value with CHO-Zellen [1] (time to maximal effect (Abb. 15)) was found to be 48 h.
As for `CC(O)CC1CCC(C(C)C(=O)O)O1` (stereo not drawn) [Nonactinsäure], the “% Steigerung der t-Pa-Synthese Durchschnitt” value in the test on CHO-Zellen [1] (setting [12]) is on record as 30,3 ± 6,5%. The “% Steigerung der t-Pa-Synthese Maximum” value in the test on CHO-Zellen [1] (setting [13]) was 58,3%.
On to `O=C(O)CSCC(=O)O` [Thiodiglykolsäure], for which, in the test with CHO-Zellen [1], the “% Steigerung der t-Pa-Synthese Durchschnitt” value is on record as 18,0 ± 3,8%, the “% Steigerung der t-Pa-Synthese Maximum” value is 31,0% and the “optimaler Dosisbereich” value is 1000 µM.
For the compound `O=C(O)C(O)C(O)C(=O)O` (stereo not drawn) [Weinsäure], the activation at 10000 µM in the test with CHO-Zellen [2] (read-out: Steigerung der t-PA-Synthese gegenüber der Kontrolle) amounted to 10.3%.
